Source: PMC4805777 (International Journal for Parasitology: Drugs and Drug …, 2016)

Tested on: T. cruzi (Strain H1)
Test: T. cruzi in vivo assay, second study
Design: species or system Trypanosoma cruzi
Conditions: BALB/c mice, 100 mg/kg/day orally, 21 days (method: 20 days)

## O=C(Cn1ccnc1[N+](=O)[O-])NCc1ccccc1 [Benznidazole]
  parasitemia, in words: undetectable
50-day study
  survival, in words: all the mice survived
